Reference: US12178791B2, “Haloallylamine sulfone derivative inhibitors of lysyl oxidases and uses thereof” (Syntara Limited, priority 2018, dated 2024)
Where a name gives a salt, the structure may show the parent alone.

What was measured:
Type in all cases: biochemical
LOXL2 = LOXL2 (Homo sapiens (Human), UniProt Q9Y4K0); assay: LOXL2 inhibition, Amplex Red oxidation assay; settings: 30 min preincubation at 37 °C, putrescine substrate
Text: (§1) Lysyl oxidase (LOX) is an extracellular copper dependent enzyme which oxidizes peptidyl lysine and hydroxylysine residues in collagen and lysine residues in elastin to produce peptidyl alpha-aminoadipic-delta-semialdehydes. […] There are five LOX family members; these are LOX, LOXL1, LOXL2, LOXL3 and LOXL4. LOX and LOXL family members can be acquired as recombinant active proteins from commercial sources, or extracted from animal tissues like bovine aorta, tendons, pig skin; or prepared from cell cultures. The inhibitory effects of the compounds of the present invention were tested against the given LOX-LOXL preparation using a method based on the detection of hydrogen peroxide with an Amplex Red oxidation assay (Zhou et al. A stable nonfluorescent derivative of resorufin for the fluorometric determination of trace hydrogen peroxide: applications in detecting the activity of phagocyte NADPH oxidase and other oxidases. Anal. Biochem. 1997; 253, 162-168). The assay was developed using either 384 or 96 well format. Briefly, in a standard black, clear bottom 384 well plate assay 25 μL of a dilution of any of the isoenzymes and orthologues in 1.2 M urea, 50 mM sodium borate buffer (pH 8.2) were added into each well in the presence of 1 μM mofegiline and 0.5 mM pargyline (to inhibit SSAO and MAO-B and MAO-A, respectively; not necessary if the enzyme is from a recombinant or purified form). Test compounds were dissolved in DMSO and tested in a Concentration Response Curve (CRC) with 11 data points, typically in the micromolar or nanomolar range after incubation with the enzyme for 30 min at 37° C. Twenty five μL of a reaction mixture containing twice the KM concentration of putrescine (Sigma Aldrich, e.g. 20 mM for LOX, or 10 mM for LOXL2 and LOXL3), 120 μM Amplex Red (Sigma Aldrich) and 1.5 U/mL horseradish peroxidase (Sigma Aldrich) prepared in 1.2 M urea, 50 mM sodium borate buffer (pH 8.2) were then added to the corresponding wells. The above volumes were doubled in the case of 96 wells plate. The fluorescence (RFU) was read every 2.5 min for 30 min at […] 37° C., excitation 565 nm and emission 590 (Optima; BMG labtech). The slope of the kinetics for each well was calculated using MARS data analysis software (BMG labtech) and this value was used to deduce the IC50 value (Dotmatics).

Bovine LOX = Bovine LOX (Bos taurus (Bovine), UniProt P33072); assay: LOX inhibition, Amplex Red oxidation assay; settings: 30 min preincubation at 37 °C, putrescine substrate
Text: as §1, with “Test compounds were dissolved in DMSO and tested in a Concentration Response Curve (CRC) with 11 data points, typically in the micromolar or nanomolar range after incubation with the enzyme for 30 min at 37° C.” left out

[1] = target: Human recombinant SSAO/VAP-1 (Homo sapiens (Human), UniProt Q16853); assay: Inhibition of human recombinant SSAO/VAP-1; settings: 30 min preincubation at 37 °C, benzylamine 600 μM; read-out: SSAO/VAP-1 Activity IC50
Experimental: Human recombinant SSAO/VAP-1 amine oxidase activity was determined using the coupled colorimetric method as described for monoamine oxidase, copper-containing amine oxidases and related enzymes (Holt A. and Palcic M., A peroxidase-coupled continuous absorbance plate-reader assay for flavin monoamine oxidases, copper-containing amine oxidases and related enzymes. Nat Protoc 2006; 1: 2498-2505). Briefly, a cloned cDNA template corresponding to residues 34-763 of human SSAO/VAP-1, and incorporating a mouse Ig kappa (κ) signal sequence, N-terminal flag epitope tag and tobacco etch virus (TEV) cleavage site, was assembled in a mammalian expression vector (pLO-CMV) by Geneart AG. This vector containing human SSAO/VAP-1 residues was transfected into CHO-Kl glycosylation mutant cell line, Lec 8. A clone stably expressing human SSAO/VAP-1 was isolated and cultured in large scale. Active human SSAO/VAP-1 was purified and recovered using immunoaffinity chromatography. This was used as the source for SSAO/VAP-1 activity. A high-throughput colorimetric assay was developed using either 96 or 384 well format. Briefly, in a standard 96 well plate assay 50 μL of purified human SSAO/VAP-1 (0.25 μg/mL) in 0.1 M sodium phosphate buffer (pH 7.4) was added into each well. Test compounds were dissolved in DMSO and tested in a Concentration Response Curve (CRC) with 4-11 data points, typically in the micromolar or nanomolar range after incubation with human SSAO/VAP-1 for 30 min at 37° C. After 30 min incubation, 50 μL of the reaction mixture containing 600 μM benzylamine (Sigma Aldrich), 120 μM Amplex Red (Sigma Aldrich) and 1.5 U/mL horseradish peroxidase (Sigma Aldrich) prepared in 0.1 M sodium phosphate buffer (pH 7.4) were added to the corresponding well. The fluorescence unit (RFU) was read every 2.5 min for 30 min at 37° C. excitation 565 nm and emission 590 (Optima; BMG labtech). The slope of the kinetics for each well was calculated using MARS data analysis software (BMG labtech) and this value was used to deduce the IC50 value (Dotmatics).

Sequence of Bovine LOX (P33072 170-418): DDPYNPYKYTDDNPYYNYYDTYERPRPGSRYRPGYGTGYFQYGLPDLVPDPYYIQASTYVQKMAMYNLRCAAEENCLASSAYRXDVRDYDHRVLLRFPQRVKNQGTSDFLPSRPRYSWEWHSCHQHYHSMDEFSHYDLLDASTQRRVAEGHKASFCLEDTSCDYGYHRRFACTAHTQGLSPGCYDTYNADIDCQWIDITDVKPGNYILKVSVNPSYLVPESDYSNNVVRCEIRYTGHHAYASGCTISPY
Sequence of LOXL2 (Q9Y4K0 26-774): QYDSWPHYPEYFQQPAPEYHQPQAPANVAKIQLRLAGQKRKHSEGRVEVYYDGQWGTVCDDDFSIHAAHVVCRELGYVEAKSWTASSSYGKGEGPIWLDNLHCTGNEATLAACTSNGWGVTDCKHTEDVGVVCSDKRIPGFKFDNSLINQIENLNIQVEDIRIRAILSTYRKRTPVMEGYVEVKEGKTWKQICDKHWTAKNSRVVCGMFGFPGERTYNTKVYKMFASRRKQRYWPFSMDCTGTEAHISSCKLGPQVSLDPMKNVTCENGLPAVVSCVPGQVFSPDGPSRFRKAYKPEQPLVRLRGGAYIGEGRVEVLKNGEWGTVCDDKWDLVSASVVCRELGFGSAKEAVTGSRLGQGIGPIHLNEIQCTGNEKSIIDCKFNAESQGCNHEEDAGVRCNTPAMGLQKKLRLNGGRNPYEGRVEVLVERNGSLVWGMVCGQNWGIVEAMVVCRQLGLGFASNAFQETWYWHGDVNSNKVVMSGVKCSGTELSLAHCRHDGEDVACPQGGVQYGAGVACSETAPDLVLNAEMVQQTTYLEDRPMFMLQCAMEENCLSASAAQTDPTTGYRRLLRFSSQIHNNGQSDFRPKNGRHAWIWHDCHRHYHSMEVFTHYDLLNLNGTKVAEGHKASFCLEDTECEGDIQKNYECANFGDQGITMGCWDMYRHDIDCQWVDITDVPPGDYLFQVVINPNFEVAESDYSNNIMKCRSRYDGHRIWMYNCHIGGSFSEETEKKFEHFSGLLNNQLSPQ
Sequence of Human recombinant SSAO/VAP-1 (Q16853 34-763): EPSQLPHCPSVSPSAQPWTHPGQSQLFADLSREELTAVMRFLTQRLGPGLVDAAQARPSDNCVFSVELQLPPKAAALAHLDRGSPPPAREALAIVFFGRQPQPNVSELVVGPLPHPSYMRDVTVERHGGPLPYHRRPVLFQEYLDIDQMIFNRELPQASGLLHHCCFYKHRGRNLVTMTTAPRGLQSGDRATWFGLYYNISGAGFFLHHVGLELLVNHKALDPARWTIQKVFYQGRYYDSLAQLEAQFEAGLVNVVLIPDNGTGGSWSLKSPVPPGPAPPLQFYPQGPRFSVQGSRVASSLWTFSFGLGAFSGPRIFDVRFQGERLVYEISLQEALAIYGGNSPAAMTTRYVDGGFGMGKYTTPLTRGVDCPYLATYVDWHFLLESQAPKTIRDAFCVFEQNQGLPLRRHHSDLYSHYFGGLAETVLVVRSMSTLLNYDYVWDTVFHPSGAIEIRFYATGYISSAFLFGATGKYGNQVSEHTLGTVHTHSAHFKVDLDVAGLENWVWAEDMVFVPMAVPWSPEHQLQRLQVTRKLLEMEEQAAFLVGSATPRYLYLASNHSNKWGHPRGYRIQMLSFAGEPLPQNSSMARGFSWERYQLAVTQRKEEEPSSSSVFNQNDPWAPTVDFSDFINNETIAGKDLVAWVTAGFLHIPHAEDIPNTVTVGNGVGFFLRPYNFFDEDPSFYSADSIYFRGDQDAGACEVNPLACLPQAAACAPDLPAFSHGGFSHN

| Structure (SMILES) | IC50 (LOXL2) | IC50 (Bovine LOX) | IC50 [1] |
| --- | --- | --- | --- |
| CC(C)c1ccccc1S(=O)(=O)C/C(F)=C/CN [Compound 21, (Z)-3-fluoro-4-(2-isopropylphenylsulfonyl)but-2-en-1-amine hydrochloride] | < 1000 nM | < 10 µM |  |
| NC/C=C(\F)CS(=O)(=O)c1cccc2ccccc12 [Compound 23, (Z)-3-fluoro-4-(naphthalen-1-ylsulfonyl)but-2-en-1-amine hydrochloride] | < 1000 nM | < 10 µM | > 30 µM |
| NC/C=C(\F)CS(=O)(=O)c1ccc(Cl)cc1Cl [Compound 25, (Z)-4-(2,4-dichlorophenylsulfonyl)-3-fluorobut-2-en-1-amine hydrochloride] | < 1000 nM | < 10 µM |  |
| NC/C=C(\F)CS(=O)(=O)c1cc(Cl)cc(Cl)c1 [Compound 28, (Z)-4-(3,5-dichlorophenylsulfonyl)-3-fluorobut-2-en-1-amine hydrochloride] | < 1000 nM | < 10 µM | > 30 µM |
| CC(C)c1ccc(S(=O)(=O)C/C(F)=C/CN)nc1 [Compound 34, (Z)-3-fluoro-4-(5-isopropylpyridin-2-ylsulfonyl)but-2-en-1-amine dihydrochloride] | < 1000 nM | < 10 µM |  |
| Cc1ccc(S(=O)(=O)C/C(F)=C/CN)nc1 [Compound 35, (Z)-3-fluoro-4-(5-methylpyridin-2-ylsulfonyl)but-2-en-1-amine dihydrochloride] | < 1000 nM | < 10 µM |  |
| NC/C=C(\F)CS(=O)(=O)c1ccc(F)cc1 [Compound 39, (Z)-3-fluoro-4-(4-fluorophenylsulfonyl)but-2-en-1-amine hydrochloride] | < 1000 nM | < 10 µM |  |
| Cc1cccnc1S(=O)(=O)C/C(F)=C/CN [Compound 43, (Z)-3-fluoro-4-(3-methylpyridin-2-ylsulfonyl)but-2-en-1-amine dihydrochloride] | < 1000 nM | < 10 µM |  |
| Cc1cc(S(=O)(=O)C/C(F)=C/CN)ccn1 [Compound 44, (Z)-3-fluoro-4-(2-methylpyridin-4-ylsulfonyl)but-2-en-1-amine dihydrochloride] | < 1000 nM | < 10 µM |  |
| Cc1ccncc1S(=O)(=O)C/C(F)=C/CN [Compound 48, (Z)-3-fluoro-4-(4-methylpyridin-3-ylsulfonyl)but-2-en-1-amine dihydrochloride] | < 1000 nM | < 10 µM |  |
| CC(C)c1ccc(S(=O)(=O)C/C(F)=C/CN)cn1 [Compound 49, (Z)-3-fluoro-4-(6-isopropylpyridin-3-ylsulfonyl)but-2-en-1-amine dihydrochloride] | < 1000 nM | < 10 µM |  |
| [2H]c1nc2c(S(=O)(=O)C/C(F)=C/CN)c([2H])c([2H])c([2H])c2c([2H])c1[2H] [Compound 53, (Z)-3-fluoro-4-((quinolin-8-yl-d6)sulfonyl)but-2-en-1-amine dihydrochloride] |  |  | > 30 µM |

Continued, in another order:

| IC50 (LOXL2) | IC50 (Bovine LOX) | Structure (SMILES) | IC50 [1] |
| --- | --- | --- | --- |
| < 1000 nM | < 10 µM | NC/C=C(\F)CS(=O)(=O)c1ccccc1-c1ccccc1 [Compound 20, (Z)-4-(biphenyl-2-ylsulfonyl)-3-fluorobut-2-en-1-amine hydrochloride] |  |
| < 1000 nM | < 10 µM | COc1ccccc1S(=O)(=O)C/C(F)=C/CN [Compound 22, (Z)-3-fluoro-4-(2-methoxyphenylsulfonyl)but-2-en-1-amine hydrochloride] |  |
| < 1000 nM | < 10 µM | NC/C=C(\F)CS(=O)(=O)c1ccc2ccccc2c1 [Compound 24, (Z)-3-fluoro-4-(naphthalen-2-ylsulfonyl)but-2-en-1-amine hydrochloride] |  |
| < 1000 nM | < 10 µM | NC/C=C(\F)CS(=O)(=O)c1cccc(Cl)c1 [Compound 26, (Z)-4-(3-chlorophenylsulfonyl)-3-fluorobut-2-en-1-amine hydrochloride] |  |
| < 1000 nM | < 10 µM | NC/C=C(\F)CS(=O)(=O)c1ccc(Cl)cc1 [Compound 27, (Z)-4-(4-chlorophenylsulfonyl)-3-fluorobut-2-en-1-amine hydrochloride] |  |
| < 1000 nM | < 10 µM | Cc1cccc(S(=O)(=O)C/C(F)=C/CN)n1 [Compound 36, (Z)-3-fluoro-4-(6-methylpyridin-2-ylsulfonyl)but-2-en-1-amine dihydrochloride] |  |
| < 1000 nM | < 10 µM | NC/C=C(\F)CS(=O)(=O)c1ccccc1F [Compound 37, (Z)-3-fluoro-4-(2-fluorophenylsulfonyl)but-2-en-1-amine hydrochloride] |  |
| < 1000 nM | < 10 µM | Cc1ccccc1S(=O)(=O)C/C(F)=C/CN [Compound 40, (Z)-3-fluoro-4-(o-tolylsulfonyl)but-2-en-1-amine hydrochloride] |  |
| < 1000 nM | < 10 µM | Cc1cccc(S(=O)(=O)C/C(F)=C/CN)c1 [Compound 41, (Z)-3-fluoro-4-(m-tolylsulfonyl)but-2-en-1-amine hydrochloride] |  |
| < 1000 nM | < 10 µM | Cc1ccc(S(=O)(=O)C/C(F)=C/CN)cc1 [Compound 42, (Z)-3-fluoro-4-(p-tolylsulfonyl)but-2-en-1-amine hydrochloride] |  |
| < 1000 nM | < 10 µM | Cc1ncccc1S(=O)(=O)C/C(F)=C/CN [Compound 47, (Z)-3-fluoro-4-(2-methylpyridin-3-ylsulfonyl)but-2-en-1-amine dihydrochloride] |  |
| < 1000 nM | < 10 µM | Cc1[nH]c2c(S(=O)(=O)C/C(F)=C/CN)cccc2c1C [Compound 52, (Z)-4-((2,3-dimethyl-1H-indol-7-yl)sulfonyl)-3-fluorobut-2-en-1-amine hydrochloride] |  |
